Patent US8592407B2, “Pyrrolo[2,1-c][1,4] benzodiazepine derivatives with dithiocarbamate side chains and process for the preparation thereof” (Council of Scientific & Industrial Research, priority 2008, dated 2013)

Key:
calf thymus DNA (CT-DNA) = test: Thermal denaturation studies with duplex-form calf thymus DNA; assay type: binding; conditions: [PBD]:[DNA] 1:5, CT-DNA 100 μM, ligand 20 μM, pH 7.00; for ΔTm after incubation at 37° C. for 0 h: 0 h at 37° C.; for ΔTm after incubation at 37° C. for 18 h: 18 h at 37° C.
Procedure: Compounds have been subjected to thermal denaturation studies with duplex-form calf thymus DNA (CT-DNA) using an modification of a reported procedure (Newman, M. S. Carcinog-compr. Surv. 1976, 1, 203; (b) Hecht, S. S.; Loy, M.; Hoffman, Carcinog-compr. Surv. 1976, 1, 325). Working solutions in aqueous buffer (10 mM NaH2PO4/Na2HPO4, 1 mM Na2EDTA, pH 7.00+0.01) containing CT-DNA (100 μm in phosphate) and the PBD (20 μm) have been prepared by addition of concentrated PBD solutions in DMSO to obtain a fixed [PBD]/[DNA] molar ratio of 1:5. The DNA−PBD solutions have been incubated at 37° C. for 0 and 18 h prior to analysis. Samples have been monitored at 260 nm using a Beckman DU-800 spectrophotometer fitted with high performance temperature controller, and heated at 1° C. min^−1
in the 40-110° C. range. DNA helix[…]coil transition temperatures (Tm) have been obtained from the maxima in the d(A260)/dT derivative plots. Drug-induced alterations in DNA melting behavior are given by: ΔTm=Tm(DNA+PBD)−Tm (DNA alone), where the Tm value for the PBD-free CT-DNA is 69.1±0.01.

Colon panel = test: NCI screen, panel average; assay type: cell-based, human; conditions: for Log10 GI50 (concentration in mol/L): Colon, average of six to eight cell lines; for LC50: Homo sapiens, read-out: Log10 LC50 (concentration in mol/L causing 50% lethality) (converted)
Melanoma panel = test: NCI screen, panel average; assay type: cell-based, human; conditions: for LC50: Homo sapiens, read-out: Log10 LC50 (concentration in mol/L causing 50% lethality) (converted); for Log10 GI50 (concentration in mol/L): Melanoma, average of six to eight cell lines
Prostate panel = test: NCI screen, panel average; assay type: cell-based, human; conditions: for CC50: Homo sapiens, read-out: Log10 LC50 (concentration in mol/L causing 50% lethality) (converted); for Log10 GI50 (concentration in mol/L): Prostate, average of six to eight cell lines
Breast panel = test: NCI screen, panel average; assay type: cell-based, human; conditions: for Log10 GI50 (concentration in mol/L): Breast, average of six to eight cell lines; for LC50: Homo sapiens, read-out: Log10 LC50 (concentration in mol/L causing 50% lethality) (converted)
CCRF-CEM = test: NCI in vitro cytotoxicity (SRB); assay type: cell-based; conditions: Homo sapiens; Leukemia CCRF-CEM; 48 h exposure
HL-60(TB) = test: NCI in vitro cytotoxicity (SRB); assay type: cell-based; conditions: Homo sapiens; Leukemia HL-60(TB); 48 h exposure
RPMI-8226 = test: NCI in vitro cytotoxicity (SRB); assay type: cell-based; conditions: Homo sapiens; Leukemia RPMI-8226; 48 h exposure
HOP-62 = test: NCI in vitro cytotoxicity (SRB); assay type: cell-based; conditions: Homo sapiens
NCI-H226 = test: NCI in vitro cytotoxicity (SRB); assay type: cell-based; conditions: Homo sapiens; Non-smallcell lung NCI-H226; 48 h exposure
NCI-H23 = test: NCI in vitro cytotoxicity (SRB); assay type: cell-based; conditions: Homo sapiens; Non-smallcell lung NCI-H23; 48 h exposure
NCI-H460 = test: NCI in vitro cytotoxicity (SRB); assay type: cell-based; conditions: Homo sapiens; Non-smallcell lung NCI-H460; 48 h exposure
HCT-15 = test: NCI in vitro cytotoxicity (SRB); assay type: cell-based; conditions: Homo sapiens; Colon HCT-15; 48 h exposure
HT29 = test: NCI in vitro cytotoxicity (SRB); assay type: cell-based; conditions: Homo sapiens, HT-29; Colon HT29; 48 h exposure
KM12 = test: NCI in vitro cytotoxicity (SRB); assay type: cell-based; conditions: Homo sapiens; Colon KM12; 48 h exposure
SW-620 = test: NCI in vitro cytotoxicity (SRB); assay type: cell-based; conditions: Homo sapiens
SNB-19 = test: NCI in vitro cytotoxicity (SRB); assay type: cell-based; conditions: Homo sapiens; CNS SNB-19; 48 h exposure
SK-MEL-2 = test: NCI in vitro cytotoxicity (SRB); assay type: cell-based; conditions: Homo sapiens; Melanoma SK-MEL-2; 48 h exposure
OVCAR-5 = test: NCI in vitro cytotoxicity (SRB); assay type: cell-based; conditions: Homo sapiens; Ovarian OVCAR-5; 48 h exposure
SK-OV-3 = test: NCI in vitro cytotoxicity (SRB); assay type: cell-based; conditions: Homo sapiens; Ovarian SK-OV-3; 48 h exposure
786-0 = test: NCI in vitro cytotoxicity (SRB); assay type: cell-based; conditions: Homo sapiens; Renal 786-0; 48 h exposure
RXF 393 = test: NCI in vitro cytotoxicity (SRB); assay type: cell-based; conditions: Homo sapiens; Renal RXF 393; 48 h exposure
SN12C = test: NCI in vitro cytotoxicity (SRB); assay type: cell-based; conditions: Homo sapiens; Renal SN12C; 48 h exposure
TK-10 = test: NCI in vitro cytotoxicity (SRB); assay type: cell-based; conditions: Homo sapiens; Renal TK-10; 48 h exposure
MCF7 = test: NCI in vitro cytotoxicity (SRB); assay type: cell-based; conditions: Homo sapiens
MDA-MB-435 = test: NCI in vitro cytotoxicity (SRB); assay type: cell-based; conditions: Homo sapiens; Breast MDA-MB-435; 48 h exposure
PC-3 = test: NCI in vitro cytotoxicity (SRB); assay type: cell-based; conditions: Homo sapiens; Prostate PC-3; 48 h exposure
SK-MEL-28 = test: NCI in vitro cytotoxicity (SRB); assay type: cell-based; conditions: Homo sapiens; Melanoma SK-MEL-28; 48 h exposure
SK-MEL-5 = test: NCI in vitro cytotoxicity (SRB); assay type: cell-based; conditions: Homo sapiens; Melanoma SK-MEL-5; 48 h exposure
UACC-257 = test: NCI in vitro cytotoxicity (SRB); assay type: cell-based; conditions: Homo sapiens; Melanoma UACC-257; 48 h exposure
UACC-62 = test: NCI in vitro cytotoxicity (SRB); assay type: cell-based; conditions: Homo sapiens; Melanoma UACC-62; 48 h exposure
Liver HEP-2 = conditions: human
[1] = Non-smallcell lung HOP-62, 48 h exposure

For COc1cc2c(cc1OCCCN1CCN(C(=S)SCCC(C#N)(c3ccccc3)c3ccccc3)CC1)N=C[C@@H]1CCCN1C2=O [Compound 12b, 3-cyano-3,3-diphenylpropyl 4-(3-[(11aS)-7-(methyloxy)-5-oxo-2,3,5,11a-tetrahydro-1H-benzo[e]pyrrolo[1,2-a][1,4]diazepin-8-yl]oxypropyl)hexahydro-1-pyrazinecarbodithioate], the “ΔTm after incubation at 37° C. for 0 h” value (calf thymus DNA (CT-DNA)) was 2.0 °C, the “ΔTm after incubation at 37° C. for 18 h” value (calf thymus DNA (CT-DNA)) was 4.0 °C and the “Log10 GI50 (concentration in mol/L)” value (Colon panel) was −6.02 mol/L. For the same molecule, the LC50 (Colon panel) was 8510 nM, the LC50 (Melanoma panel) was 5500 nM and the “Log10 GI50 (concentration in mol/L)” value (Melanoma panel) was −5.94 mol/L. The CC50 (Prostate panel) was 2400 nM, the “Log10 GI50 (concentration in mol/L)” value (Prostate panel) was −6.51 mol/L and the “Log10 GI50 (concentration in mol/L)” value (Breast panel) was −6.13 mol/L. It also gave an LC50 (Breast panel) of 37200 nM, a GI50 (CCRF-CEM) of 230 nM and a GI50 (HL-60(TB)) of 250 nM. For the same molecule, the GI50 (RPMI-8226) was 220 nM, the GI50 (HOP-62; [1]) was 120 nM and the GI50 (HOP-62; non-small cell lung HOP-62) was 210 nM. It also gave a GI50 (NCI-H226) of 1510 nM, a GI50 (NCI-H23) of 1400 nM and a GI50 (NCI-H460) of 770 nM. The GI50 (HCT-15) was 1810 nM, the GI50 (HT29) was 870 nM and the GI50 (KM12) was 1070 nM. The GI50 (SW-620; Colon SW-620, 48 h exposure) was 510 nM, the GI50 (SW-620; colon cancer SW-620) was 510 nM and the GI50 (SNB-19) was 1230 nM. For the same molecule, the GI50 (SK-MEL-2) was 1160 nM, the GI50 (OVCAR-5) was 1350 nM and the GI50 (SK-OV-3) was 2690 nM. It also gave a GI50 (786-0) of 1060 nM, a GI50 (RXF 393) of 190 nM and a GI50 (SN12C) of 640 nM. The GI50 (TK-10) was 650 nM, the GI50 (MCF7; MCF7, breast MCF-7) was 330 nM and the GI50 (MCF7; Breast MCF7, 48 h exposure) was 330 nM. The GI50 (MDA-MB-435) was 550 nM, the GI50 (PC-3) was 340 nM and the GI50 (SK-MEL-28) was 1520 nM. It also gave a GI50 (SK-MEL-5) of 1180 nM, a GI50 (UACC-257) of 2000 nM and a GI50 (UACC-62) of 1060 nM.
In the case of COc1cc2c(cc1OCCCCN1CCN(C(=S)SCCC(C#N)(c3ccccc3)c3ccccc3)CC1)N=C[C@@H]1CCCN1C2=O [Compound 12c, 3-cyano-3,3-diphenylpropyl 4-(4-[(11aS)-7-(methyloxy)-5-oxo-2,3,5,11a-tetrahydro-1H-benzo[e]pyrrolo[1,2-a][1,4]diazepin-8-yl]oxybutyl)hexahydro-1-pyrazinecarbodithioate], the “ΔTm after incubation at 37° C. for 0 h” value (calf thymus DNA (CT-DNA)) is reported as 2.0 °C, the “ΔTm after incubation at 37° C. for 18 h” value (calf thymus DNA (CT-DNA)) is reported as 2.1 °C and the “Log10 GI50 (concentration in mol/L)” value (Colon panel) is reported as −5.93 mol/L. The LC50 (Colon panel) was 72400 nM, the LC50 (Melanoma panel) was 7410 nM and the “Log10 GI50 (concentration in mol/L)” value (Melanoma panel) was −5.90 mol/L. For the same molecule, the CC50 (Prostate panel) was 7240 nM, the “Log10 GI50 (concentration in mol/L)” value (Prostate panel) was −5.99 mol/L and the “Log10 GI50 (concentration in mol/L)” value (Breast panel) was −6.02 mol/L. It also gave an LC50 (Breast panel) of 66100 nM, a GI50 (CCRF-CEM) of 530 nM and a GI50 (HL-60(TB)) of 320 nM. It also gave a GI50 (RPMI-8226) of 490 nM, a GI50 (HOP-62; [1]) of 710 nM and a GI50 (NCI-H226) of 1260 nM. It also gave a GI50 (NCI-H23) of 1680 nM, a GI50 (NCI-H460) of 1250 nM and a GI50 (HCT-15) of 1410 nM. For the same molecule, the GI50 (HT29) was 1130 nM, the GI50 (KM12) was 1390 nM and the GI50 (SW-620; Colon SW-620, 48 h exposure) was 1120 nM. The GI50 (SNB-19) was 1670 nM, the GI50 (SK-MEL-2) was 1040 nM and the GI50 (OVCAR-5) was 2470 nM. For the same molecule, the GI50 (SK-OV-3) was 2960 nM, the GI50 (786-0) was 1280 nM and the GI50 (RXF 393) was 410 nM. It also gave a GI50 (SN12C) of 1160 nM, a GI50 (TK-10) of 1260 nM and a GI50 (MCF7; Breast MCF7, 48 h exposure) of 430 nM. For the same molecule, the GI50 (MDA-MB-435) was 1040 nM, the GI50 (PC-3) was 690 nM and the GI50 (SK-MEL-28) was 1750 nM. The GI50 (SK-MEL-5) was 1110 nM, the GI50 (UACC-257) was 1970 nM and the GI50 (UACC-62) was 1320 nM. The Preliminary in vitro cytotoxicity data (Liver HEP-2) was 69%.
